Reference: patent publication US6984659B2, “2-pyrrolidinone derivatives substituted at position 4 for reducing the extracellular glutamate level” (priority 1997, dated 2006)
Entries after “also recorded” stand apart in the source; their conditions may differ.

Tests used:
[1] = tested on: extracellular glutamate level; assay: superfusion experiments on rat brain slices (striatum), glutamate in superfusate by HPLC; format: cell-based
Method: A solution of gabapentin (100 μM) in physiological buffer (composition below) with a pH of 7.4 was prepared and irradiated with ultraviolet light (260 and 330 nanometers) at 37° C. for two hours. As described in Kearney A. S. et al., International Journal of Pharmaceutics, 78 (1992), 25–34, this slowly produces the lactam 8-azaspiro[5,4]decan-9-one. Because of the slow reaction rate, a yield of about 1% is assumed in accordance with Kearney et al. (1992), which corresponds to a 1 μM solution.
The activity of this solution in reducing the extracellular glutamate level was shown by means of superfusion experiments on rat brain slices. Slices with a thickness of 350 μm from the rat striatum were used for this. In each case, two slices were employed in a superfusion chamber with an extremely small dead volume, about 100 μl. Physiological buffer (concentrations in mM: NaCl 121, KCl 1.8, CaCl2, 1.3, MgSO4 1.2, NaHCO3 25, […] 1.2, glucose 11, pH 7.4, 95% O2/5% CO2-saturated) is then passed over them at 37° C. After a preliminary perfusion, which serves in particular to remove tissue particles and amino acids released by the injury to the tissue, superfusate fractions are collected at a flow rate of 400 to 800 μl every five minutes. […] The superfusates obtained are filtered (0.45 μm pore size) and the amino acid concentrations are determined by HPLC. […]

[2] = tested on: retinal gangliocytes (neurons in the ganglion cell layer); format: in vivo
Method: The following results were found:
10 rats were treated with 0.9% NaCl i.p. at the start of a unilateral one-hour intraocular pressure increase. After 6 hours, the treatment was again carried out with 0.9% NaCl i.p. After 14 days, the rats were sacrificed, and the retinal gangliocytes were investigated. Compared with the respective control eye, only 17.4% (±4%) of the retinal gangliocytes had survived.
In the test group, likewise of 10 rats, 50 mg/kg 8-azaspiro[5,4]decan-9-one was administered i.p. at the start of a unilateral one-hour intraocular pressure increase. The compound was administered again in a dose of 50 mg/kg 6 hours after the intraocular pressure increase. After 14 days, the rats were sacrificed, and the retinal gangliocytes were investigated. It emerged that, compared with the respective control eye, 35% (±7%) of the retinal gangliocytes survived.
The method in brief: Retinal ischemia in the left eye was induced by elevating the intraocular pressure above systolic blood pressure for one hour. Retinal ischemia was confirmed by whitening of the fundus. In the first experiment 10 rats received 50 mg/kg GBP intraperitoneally immediately prior to ischemia and 50 mg/kg 6 hours after reperfusion, 10 rats received 50 mg/kg GBP-L i.p. immediately prior to ischemia and 50 mg/kg 6 hours after reperfusion, and 10 rats received vehicle alone. Ischemic damage was histologically quantified 14 days after ischemia: Both eyes were enucleated and immersed in 4% buffered formaldehyde for 24 hours. Retinal wholemounts were made and stained with cresyl violet, (0.1%, pH 4.5 for 30 min). Ischemic damage was quantified by counting the number of neurons in the ganglion cell layer in a masked fashion. […] This control eye was not subjected to ischemia.
Statistically, the ganglion cell numbers were evaluated as follows: In contrast to the usual ANOVA where the ratio of the mean squares between the treatment groups and the error mean square is used in the F-statistic, the nested design applied here requested another approach. Apart from the factor medication, there were three other sources of variation in our example, (1) the rat, (2) the eye, and (3) the replications of cell counting within each eye. To test for the medication effect the mean square for rat within medication has to be used as denominator. The variability of the eye is then contained in both the numerator (with all contributions to the variance) and the denominator (with the contributions to the variance except that of the factor medication). Thus, the variability of the eye is eliminated in the end and the variance of the factor medication is assessed appropriately in the F-test. The used model was: cell counts=med rat (med) eye(med*rat).
In order to evaluate the therapeutic window of GBP-L as an antiischemic drug (Pulsinelli et al. 1997) its time-effect relationship was tested at 75 mg/kg given twice prior to or after the end of ischemia with an interval of 6 hours.
The dose dependence of the neuroprotective effect of GBP-L was established using 25 mg/kg, 50 mg/kg and 75 mg/kg (see FIG. 7) given twice three hours and nine hours after the end of ischemia.

[3] = tested on: potassium-evoked release of [^3H]-noradrenaline; details: rat neocortex slices; Freiman et al. 2001, FIG. 1.0; cited from earlier work
[4] = tested on: electrically evoked release of Glu; assay: electrically evoked [^3H]-Glu release from [^3H]-Gln-loaded hippocampus slices; format: cell-based, rat; details: 540 pulses of 4 ms, 6 Hz, 60 mA, room temperature, 100 μM PDC, added 15 min before second stimulation

Compound	difference in glutamate between treated and comparative samples ([1]; gabapentin solution (100 μM) not irradiated, no lactam)	neuroprotective effect / number of surviving neurons (in words) ([2]; 50 mg/kg i.p. immediately prior to ischemia and 6 hours after reperfusion, 14 days, listed as gabapentin)	rate of surviving neurons ([2]; 50 mg/kg i.p. twice, ganglion cell layer neurons, 14 days after ischemia, pure ischemia 17.5%) [%]	potassium-evoked release of [^3H]-noradrenaline (in words) [3]	extracellular glutamate concentration found in superfusate ([1]; rat striatum slices flushed with approximately 1 μM solution, control tests 0.24 μM) [µM]	retinal gangliocytes survived compared with the respective control eye ([2]; 50 mg/kg i.p. at start of one-hour intraocular pressure increase and again 6 hours after, 14 days, NaCl group 17.4%) [%]	mortality in the 14 days after the test ([2]; 50 mg/kg i.p. twice, 10 rats)	time-effect relationship: neuroprotective action maintained after recirculation ([2]; 75 mg/kg given twice prior to or after the end of ischemia, interval 6 hours, another strain of rats)	slope of regression line of dose-effect relationship ([2]; 25, 50 and 75 mg/kg given twice, three and nine hours after the end of ischemia)	electrically evoked release of Glu (in words) [4]	electrically evoked release of Glu (in words) ([4]; listed as gabapentin lactam)
NCC1(CC(=O)O)CCCCC1 [GBP, gabapentin, reference compound]	no difference could be found	no protective effect whatever	17.5	inhibitory effects	–	–	–	–	–	–	–
O=C1CC2(CCCCC2)CN1 [GBP-L, 8-azaspiro[5,4]decan-9-one]	–	–	–	–	0.12	35	no animal died	maintained for more than three hours after recirculation	0.41	seems not to be influenced	not influenced; also recorded: unaffected
